# Patent US20080045537A1, “Chemical Compounds” (priority 2004, published 2008)
# Tested on: HIV-1 IIIB (T-tropic, CXCR4 utilizing)
# Assay: HOS HIV-1 infectivity assay
# Assay type: cell-based
# Conditions: Human immunodeficiency virus 1, IIIB; as determined by the infectivity assay; strain not stated in Table 2; read-out: Activity Level
# Protocol: Compounds were profiled against two HIV-1 viruses, the M-tropic (CCR5 utilizing) Ba-L strain and the T-tropic (CXCR4 utilizing) IIIB strain. Both viruses were propagated in human peripheral blood lymphocytes. Compounds were tested for there ability to block infection of the HOS cell line (expressing hCXCR4/hCCR5/hCD4/pHIV-LTR-luciferase) by either HIV-1 Ba-L or HIV-1 IIIB. Compound cytotoxicity was also examined in the absence of virus addition.
# HOS cells (expressing hCXCR4/hCCR5/hCD4/pHIV-LTR-luciferase) were harvested and diluted in Dulbeccos modified Eagles media supplemented with 2% FCS and non-essential amino acid to a concentration of 60,000 cells/ml. The cells were plated into 96-well plates (100 ul per well) and the plates were placed in a tissue culture incubator (37° C.; 5% CO2/95% air) for a period of 24 h.
# Subsequently, 50 ul of the desired drug solution (4 times the final concentration) was added to each well and the plates were returned to the tissue culture incubator (37° C.; 5% CO2/95% air) for 1 h. Following this incubation 50 ul of diluted virus was added to each well (approximately 2 million RLU per well of virus). The plates were returned to the tissue culture incubator (37° C.; 5% CO2/95% air) and were incubated for a further 96 h.
# Following this incubation the endpoint for the virally infected cultures was quantified following addition of Steady-Glo Luciferase assay system reagent (Promega, Madison, Wis.). Cell viability or non-infected cultures was measured using a CellTiter-Glo luminescent cell viability assay system (Promega, Madison, Wis.). All luminescent readouts are performed on a Topcount luminescence detector (Packard, Meridien, Conn.).
row,SMILES,IC50 [nM]
1,"CN(Cc1nc2c(NC(=O)CCN3CCCCC3)cccc2[nH]1)C1CCCc2cccnc21 (stereo not shown) [Example 100, N-(2-{[methyl(5,6,7,8-tetrahydro-8-quinolinyl)amino]methyl}-1H-benzimidazol-4-yl)-3-(1-piperidinyl)propanamide]",100 to 500
2,"CN(Cc1nc2c(-n3ccnc3)cccc2[nH]1)C1CCCc2cccnc21 (stereo not shown) [Example 101, N-{[4-(1H-Imidazol-1-yl)-1H-benzimidazol-2-yl]methyl}-N-methyl-5,6,7,8-tetrahydro-8-quinolinamine]",100 to 500
3,"CN(Cc1nc2c(NC(=O)c3cccnc3)cccc2[nH]1)C1CCCc2cccnc21 (stereo not shown) [Example 102, N-(2-{[Methyl(5,6,7,8-tetrahydro-8-quinolinyl)amino]methyl}-1H-benzimidazol-4-yl)-3-pyridinecarboxamide]",100 to 500
4,"CN(Cc1nc2c(NC(=O)c3ccncc3)cccc2[nH]1)C1CCCc2cccnc21 (stereo not shown) [Example 103, N-(2-{[Methyl(5,6,7,8-tetrahydro-8-quinolinyl)amino]methyl}-1H-benzimidazol-4-yl)-4-pyridinecarboxamide]",500 to 10000
5,"CN(Cc1nc2c(NC(=O)[C@@H]3CCCN3C)cccc2[nH]1)C1CCCc2cccnc21 (stereo partly drawn) [Example 104, 1-Methyl-N-(2-{[methyl(5,6,7,8-tetrahydro-8-quinolinyl)amino]methyl}-1H-benzimidazol-4-yl)-L-prolinamide]",100 to 500
6,"CN(Cc1nc2c(NC(=O)C(C)(C)N)cccc2[nH]1)C1CCCc2cccnc21 (stereo not shown) [Example 105, 2-Methyl-N-1-(2-{[methyl(5,6,7,8-tetrahydro-8-quinolinyl)amino]methyl}-1H-benzimidazol-4-yl)alaninamide]",100 to 500
7,"CN(C)CCCNc1cccc2[nH]c(CN(C)C3CCCc4cccnc43)nc12 (stereo not shown) [Example 106, [3-(Dimethylamino)propyl](2-{[methyl(5,6,7,8-tetrahydro-8-quinolinyl)amino]methyl}-1H-benzimidazol-4-yl)amine]",100 to 500
8,"CN(C)CCNc1cccc2[nH]c(CN(C)C3CCCc4cccnc43)nc12 (stereo not shown) [Example 107, [2-(Dimethylamino)ethyl](2-{[methyl(5,6,7,8-tetrahydro-8-quinolinyl)amino]methyl}-1H-benzimidazol-4-yl)amine]",< 100
9,"CNCCN(C)c1cccc2[nH]c(CN(C)C3CCCc4cccnc43)nc12 (stereo not shown) [Example 108, Methyl[2-(methylamino)ethyl](2-{[methyl(5,6,7,8-tetrahydro-8-quinolinyl)amino]methyl}-1H-benzimidazol-4-yl)amine]",< 100
10,"CN(C)CCN(C)c1cccc2[nH]c(CN(C)C3CCCc4cccnc43)nc12 (stereo not shown) [Example 109, [2-(Dimethylamino)ethyl]methyl(2-{[methyl(5,6,7,8-tetrahydro-8-quinolinyl)amino]methyl}-1H-benzimidazol-4-yl)amine]",< 100
11,"CC(=O)N1CCN(c2cccc3[nH]c(CN(C)C4CCCc5cccnc54)nc23)CC1 (stereo not shown) [Example 110, N-{[4-(4-Acetyl-1-piperazinyl)-1H-benzimidazol-2-yl]methyl}-N-methyl-5,6,7,8-tetrahydro-8-quinolinamine]",100 to 500
12,"CC(C)N1CCN(c2cccc3[nH]c(CN(C)C4CCCc5cccnc54)nc23)CC1 (stereo not shown) [Example 111, N-Methyl-N-({4-[4-(1-methylethyl)-1piperazinyl]-1H-benzimidazol-2-yl}methyl)-5,6,7,8-tetrahydro-8-quinolinamine]",< 100
13,"CC(C)N(Cc1nc2c(N3CCN(C)CC3)cccc2[nH]1)C1CCCc2cccnc21 (stereo not shown) [Example 112, N-(1-Methylethyl)-N-{[4-(4-methyl-1-piperazinyl)-1H-benzimidazol-2-yl]methyl}-5,6,7,8-tetrahydro-8-quinolinamine]",< 100
14,"CC(C)N1CCN(c2cccc3[nH]c(CN(C(C)C)C4CCCc5cccnc54)nc23)CC1 (stereo not shown) [Example 113, N-(1-methylethyl)-N-({4-[4-(1-methylethyl)-piperazinyl]-1H-benzimidazol-2-yl}methyl)-5,6,7,8-tetrahydro-8-quinolinamine]",< 100
15,"CN1CCN(c2cccc3nc(C(C)(C)NC4CCCc5cccnc54)[nH]c23)CC1 (stereo not shown) [Example 114, N-{1-methyl-1-[4-(4-methyl-1-piperazinyl)-1H-benzimidazol-2-yl]ethyl}-5,6,7,8-tetrahydro-8-quinolinamine]",< 100
16,"CN1CCN(c2cccc3nc(C(C)(C)N(C)C4CCCc5cccnc54)[nH]c23)CC1 (stereo not shown) [Example 115, N-Methyl-N-{1-methyl-1-[4-(4-methyl-1-piperazinyl)-1H-benzimidazol-2-yl]ethyl}-5,6,7,8-tetrahydro-8-quinolinamine]",< 100
17,"CN(Cc1nc2c(N3CCN(C(=O)CN)CC3)cccc2[nH]1)C1CCCc2cccnc21 (stereo not shown) [Example 116, N-({4-[4-(Aminoacetyl)-1-piperazinyl]-1H-benzimidazol-2-yl}methyl)-N-methyl-5,6,7,8-tetrahydro-8-quinolinamine]",< 100
18,"CN(Cc1nc2c(N3CCN(C(=O)c4ccccn4)CC3)cccc2[nH]1)C1CCCc2cccnc21 (stereo not shown) [Example 117, N-Methyl-N-({4-[4-(2-pyridinylcarbonyl)-1-piperazinyl]-1H-benzimidazol-2-yl}methyl)-5,6,7,8-tetrahydro-8-quinolinamine]",100 to 500
19,"CN1CCN(c2cccc3nc(CN(C)[C@@H]4CCCc5cccnc54)[nH]c23)CC1 [Example 133A, (8R)—N-Methyl-N-{[4-(4-methyl-1-piperazinyl)-1H-benzimidazol-2-yl]methyl}-5,6,7,8-tetrahydro-8-quinolinamine]",< 100
20,"CN1CCN(c2cccc3nc(CN(C)[C@H]4CCCc5cccnc54)[nH]c23)CC1 [Example 133B, (8S)—N-Methyl-N-{[4-(4-methyl-1-piperazinyl)-1H-benzimidazol-2-yl]methyl}-5,6,7,8-tetrahydro-8-quinolinamine]",< 100
21,"CCN(Cc1nc2cccc(N3CCN(C)CC3)c2[nH]1)[C@@H]1CCCc2cccnc21 [Example 134, (8R)—N-Ethyl-N-{[4-(4-methyl-1-piperazinyl)-1H-benzimidazol-2-yl]methyl}-5,6,7,8-tetrahydro-8-quinolinamine]",< 100
22,"CCN(Cc1nc2cccc(N3CCN(C)CC3)c2[nH]1)[C@H]1CCCc2cccnc21 [Example 135, (8S)—N-Ethyl-N-{[4-(4-methyl-1-piperazinyl)-1H-benzimidazol-2-yl]methyl}-5,6,7,8-tetrahydro-8-quinolinamine]",< 100
23,"CCCN(Cc1nc2cccc(N3CCN(C)CC3)c2[nH]1)[C@@H]1CCCc2cccnc21 [Example 136, (8R)—N-{[4-(4-methyl-1-piperazinyl)-1H-benzimidazol-2-yl]methyl}-N-propyl-5,6,7,8-tetrahydro-8-quinolinamine]",< 100
24,"CCCN(Cc1nc2cccc(N3CCN(C)CC3)c2[nH]1)[C@H]1CCCc2cccnc21 [Example 137, (8S)—N-{[4-(4-methyl-1-piperazinyl)-1H-benzimidazol-2-yl]methyl}-N-propyl-5,6,7,8-tetrahydro-8-quinolinamine]",< 100
25,"CC(C)N(Cc1nc2cccc(N3CCN(C)CC3)c2[nH]1)[C@H]1CCCc2cccnc21 [Example 138, (8S)—N-(1-Methylethyl)-N-{[4-(4-methyl-1-piperazinyl)-1H-benzimidazol-2-yl]methyl}-5,6,7,8-tetrahydro-8-quinolinamine]",< 100
